Series [1] deals with Rattus norvegicus. The series is described as follows: Gastrointestinal toxicity in fasted Rattus norvegicus Wistar albino (rat) assessed as ulcer index at 20 mg/kg, ip measured after 4 hr. The class given is organism-based. Further details: dose 20 mg/kg, route intraperitoneal. Particulars: in vivo.
Series [2] concerns Rattus norvegicus. The series is described as follows: Anti-inflammatory activity in Rattus norvegicus (rat) assessed as inhibition of carrageenan-induced paw edema at 10 mg/kg, po measured at 3 hr. The class given is functional. (The carrageenan paw model is a standard test of acute inflammation.)
The test system of series [3] is Rattus norvegicus. As to the kind of experiment: Anti-inflammatory activity in Rattus norvegicus (rat) assessed as inhibition of carrageenan-induced paw edema at 10 mg/kg, po measured at 2 hr. The class given is functional.
The subject of series [4] is Rattus norvegicus. The series is described as follows: Anti-inflammatory activity in Rattus norvegicus (rat) assessed as inhibition of carrageenan-induced paw edema at 10 mg/kg, po measured at 1 hr. The class given is functional.
In series [5] the test system is Rattus norvegicus. As to the kind of experiment: Anti-inflammatory activity in Rattus norvegicus (rat) assessed as inhibition of carrageenan-induced paw edema at 10 mg/kg, po measured at 30 min. The class given is functional. Particulars: 0.5 h.
In series [6] the test system is Mus musculus. As to the kind of experiment: […] activity in Mus musculus Wistar albino (mouse) at 10 mg/kg, po after 3 hr by tail-flick test. The class given is functional. (Thermal pain tests record how soon the animal reacts.)
Series [7] has as its system Mus musculus. As to the kind of experiment: […] activity in Mus musculus Wistar albino (mouse) at 10 mg/kg, po after 2 hr by tail-flick test. The class given is functional.
The subject of series [8] is Mus musculus. As to the kind of experiment: […] activity in Mus musculus Wistar albino (mouse) at 10 mg/kg, po after 1 hr by tail-flick test. The class given is functional.
The test system of series [9] is Mus musculus. The series is described as follows: […] activity in Mus musculus Wistar albino (mouse) at 10 mg/kg, po after 30 min by tail-flick test. The class given is functional.

Consider `CCC(CC)=NNc1nc2ccccc2c(=O)n1-c1cccc(OC)c1`, for which, in the series with Rattus norvegicus [1], the UI turned out to be 0.51. The inhibition in vivo (in general, the percentage by which the read-out fell short of the control) at 10 mg/kg in the series on Rattus norvegicus [2] was found to be 34%; in the series on Rattus norvegicus [3], 53%; in the series on Rattus norvegicus [4] it was 48%; in the series with Rattus norvegicus [5], 45%. The Activity worked out at 38% in the series on Mus musculus [6], 66% in the series with Mus musculus [7], 61% in the series on Mus musculus [8] and 56% with Mus musculus [9].

As for `CCC/C(C)=N/Nc1nc2ccccc2c(=O)n1-c1cccc(OC)c1`, the UI with Rattus norvegicus [1] was determined as 0.58. Besides, the inhibition in vivo at 10 mg/kg in the series on Rattus norvegicus [2] amounted to 34%; in the series on Rattus norvegicus [3], 49%; in the series on Rattus norvegicus [4], 47%; in the series with Rattus norvegicus [5], 42%. In addition, the Activity with Mus musculus [6] amounted to 41%; with Mus musculus [7] it was 68%; with Mus musculus [8], 64%; in the series with Mus musculus [9], 57%.

In the case of `COc1cccc(-n2c(NN=C3CCCCC3)nc3ccccc3c2=O)c1`, the UI in the series on Rattus norvegicus [1] worked out at 0.61. The inhibition in vivo at 10 mg/kg came to 31% in the series on Rattus norvegicus [2], 43% in the series on Rattus norvegicus [3], 40% in the series on Rattus norvegicus [4] and 37% in the series on Rattus norvegicus [5]. In addition, the Activity in the series on Mus musculus [6] is given as 38%; in the series with Mus musculus [7] it was 53%; in the series on Mus musculus [8], 49%; in the series with Mus musculus [9] it was 46%.

With `COc1cccc(-n2c(N/N=C(\C)c3ccccc3)nc3ccccc3c2=O)c1`, the UI in the series on Rattus norvegicus [1] worked out at 0.62. Further, the inhibition in vivo at 10 mg/kg in the series on Rattus norvegicus [2] amounted to 32%; in the series on Rattus norvegicus [3] it was 45%; in the series on Rattus norvegicus [4] it was 42%; in the series with Rattus norvegicus [5], 39%. Also, the Activity in the series on Mus musculus [6] was 36%; in the series with Mus musculus [7], 51%; with Mus musculus [8], 46%; in the series on Mus musculus [9], 44%.

On to `COc1cccc(-n2c(N/N=C3/C(=O)Nc4ccccc43)nc3ccccc3c2=O)c1`, for which the inhibition in vivo at 10 mg/kg in the series on Rattus norvegicus [2] came out at 31%; in the series on Rattus norvegicus [3], 40%; in the series with Rattus norvegicus [4], 37%; with Rattus norvegicus [5] it was 35%. In addition, the Activity in the series with Mus musculus [6] amounted to 36%; in the series on Mus musculus [7], 46%; in the series on Mus musculus [8], 43%; with Mus musculus [9], 39%.

For the compound `COc1cccc(-n2c(N/N=C\c3ccccc3)nc3ccccc3c2=O)c1`, the inhibition in vivo at 10 mg/kg came to 31% in the series with Rattus norvegicus [2], 47% with Rattus norvegicus [3], 38% with Rattus norvegicus [4] and 35% with Rattus norvegicus [5]. The Activity with Mus musculus [6] is given as 35%; with Mus musculus [7], 47%; in the series on Mus musculus [8], 47%; in the series on Mus musculus [9], 40%.

For `COc1cccc(-n2c(N/N=C\c3ccccc3Cl)nc3ccccc3c2=O)c1`, the inhibition in vivo at 10 mg/kg is 27% in the series with Rattus norvegicus [2], 37% in the series with Rattus norvegicus [3], 33% in the series with Rattus norvegicus [4] and 29% in the series on Rattus norvegicus [5]. In addition, the Activity in the series with Mus musculus [6] stood at 33%; in the series with Mus musculus [7] it was 42%; in the series on Mus musculus [8] it was 39%; with Mus musculus [9], 32%.

`COc1cccc(-n2c(N/N=C\c3ccc(Cl)cc3)nc3ccccc3c2=O)c1`: the inhibition in vivo at 10 mg/kg turned out to be 27% in the series on Rattus norvegicus [2], 37% in the series on Rattus norvegicus [3], 36% with Rattus norvegicus [4] and 33% in the series with Rattus norvegicus [5]. Further, the Activity in the series with Mus musculus [6] is on record as 34%; with Mus musculus [7], 42%; with Mus musculus [8], 40%; in the series on Mus musculus [9], 34%.

Consider `COc1cccc(-n2c(N/N=C\c3ccccc3[N+](=O)[O-])nc3ccccc3c2=O)c1`, for which the inhibition in vivo at 10 mg/kg in the series with Rattus norvegicus [2] was 27%; in the series with Rattus norvegicus [3], 38%; in the series on Rattus norvegicus [4] it was 35%; in the series with Rattus norvegicus [5], 35%. Further, the Activity in the series with Mus musculus [6] is listed as 36%; with Mus musculus [7], 45%; in the series on Mus musculus [8], 41%; with Mus musculus [9], 35%.

On to `COc1cccc(-n2c(N/N=C\c3ccc([N+](=O)[O-])cc3)nc3ccccc3c2=O)c1`, for which the inhibition in vivo at 10 mg/kg in the series with Rattus norvegicus [2] came to 29%; in the series on Rattus norvegicus [3], 37%; in the series on Rattus norvegicus [4], 35%; in the series on Rattus norvegicus [5], 33%. In addition, the Activity with Mus musculus [6] is 36%; in the series with Mus musculus [7] it was 42%; with Mus musculus [8], 40%; in the series on Mus musculus [9], 35%.

With `COc1ccc(/C=N\Nc2nc3ccccc3c(=O)n2-c2cccc(OC)c2)cc1`, the inhibition in vivo at 10 mg/kg in the series with Rattus norvegicus [2] came to 27%; in the series on Rattus norvegicus [3] it was 37%; with Rattus norvegicus [4], 35%; in the series with Rattus norvegicus [5], 29%. Moreover, the Activity is 30% with Mus musculus [6], 41% in the series with Mus musculus [7], 37% in the series on Mus musculus [8] and 30% with Mus musculus [9].

On to `COc1cccc(-n2c(N/N=C\c3ccccc3C)nc3ccccc3c2=O)c1`, for which the inhibition in vivo at 10 mg/kg in the series on Rattus norvegicus [2] came out at 30%; with Rattus norvegicus [3] it was 42%; in the series on Rattus norvegicus [4] it was 41%; in the series with Rattus norvegicus [5], 36%. For the same compound, the Activity with Mus musculus [6] stood at 34%; with Mus musculus [7], 51%; in the series on Mus musculus [8], 45%; in the series on Mus musculus [9] it was 39%.

Regarding `COc1cccc(-n2c(N/N=C\c3ccc(C)cc3)nc3ccccc3c2=O)c1`, the inhibition in vivo at 10 mg/kg in the series with Rattus norvegicus [2] came to 28%; in the series with Rattus norvegicus [3], 40%; with Rattus norvegicus [4], 35%; in the series on Rattus norvegicus [5], 32%. Also, the Activity amounted to 37% with Mus musculus [6], 50% with Mus musculus [7], 48% in the series with Mus musculus [8] and 44% in the series on Mus musculus [9].

As to `COc1cccc(-n2c(NN=C(c3ccccc3)c3ccccc3)nc3ccccc3c2=O)c1`, the inhibition in vivo at 10 mg/kg in the series on Rattus norvegicus [2] was determined as 30%; in the series on Rattus norvegicus [3], 41%; in the series on Rattus norvegicus [4], 38%; in the series on Rattus norvegicus [5] it was 33%. In addition, the Activity in the series with Mus musculus [6] is 36%; in the series on Mus musculus [7], 49%; in the series on Mus musculus [8], 46%; in the series with Mus musculus [9], 41%.

With `CC/C(C)=N/Nc1nc2ccccc2c(=O)n1-c1cccc(OC)c1`, in the series on Rattus norvegicus [1], the UI was found to be 0.53. Besides, the inhibition in vivo at 10 mg/kg in the series on Rattus norvegicus [2] was 32%; with Rattus norvegicus [3], 46%; in the series on Rattus norvegicus [4], 45%; in the series with Rattus norvegicus [5], 41%. Moreover, the Activity came out at 37% with Mus musculus [6], 61% in the series on Mus musculus [7], 58% in the series on Mus musculus [8] and 53% in the series on Mus musculus [9].

Consider `CC(=O)Oc1ccccc1C(=O)O` [ASPIRIN], for which the UI in the series with Rattus norvegicus [1] is given as 1.73.

With `O=C([O-])Cc1ccccc1Nc1c(Cl)cccc1Cl.[Na+]` [DICLOFENAC SODIUM], the UI in the series on Rattus norvegicus [1] is given as 1.65. In addition, the inhibition in vivo at 10 mg/kg with Rattus norvegicus [2] was 33%; with Rattus norvegicus [3], 39%; with Rattus norvegicus [4], 38%; with Rattus norvegicus [5], 32%. The Activity in the series on Mus musculus [6] was determined as 33%; in the series on Mus musculus [7], 45%; with Mus musculus [8], 43%; in the series with Mus musculus [9] it was 37%.

(Values after ChEMBL document CHEMBL3046346, “Synthesis and analgesic, anti-inflammatory activities of 3-(3-methoxyphenyl)-2-substituted amino-quinazolin-4(3H)-ones” (Med Chem Res, 2011).)
